Where two headings read alike, the source gives them in different places.
Key:
K562 cells [1] = assay: MTS cell viability assay in K562 cells; type: cell-based; settings: Homo sapiens; K562, RPMI-1640; Table 2 head prints 24 h, method and FIG. 3A legend 72 hours
Description: (§1) The cells were incubated with inhibitors for 24 hours, before the plates were equilibrated to room temperature and 100 μL CellTiter-Glo reagent was added. […] Luminescent signal was plotted against the inhibitor log-dose and evaluated by a non-linear regression to determine half-maximal effect concentration (EC50) values, where possible.
An MTS assay was utilized to assess the effect of inhibitors on K562 viability.

K562 cells [2] = assay: CellTiter-Glo cell viability assay in K562 cells (glucose-free media); type: cell-based; settings: Homo sapiens, read-out: EC50 CellTiter Glo 24 h
Description: as §1
(§2) In order to increase the reliance of the cells on AMPK function, assays were needed that could be performed under glucose-free conditions. Therefore in order to elucidate the mechanism of action of the AMPK inhibitors, a CellTiter-Glo cell viability assay (FIG. 3B), which provide a readout proportional to ATP concentration, and thus, cellular viability, as well as a CellTox green cellular toxicity assay (FIG. 3C and FIG. 3D), which contain a dye that fluoresces upon DNA-binding in cells with impraied membrane integrity due to cytotoxicity were performed in K562 cells grown in glucose-free media. The results are summarized in Table 2 (values are the mean±S.D. (n=3)).

AMPKα1 = AMPKα1 (Homo sapiens (Human), UniProt Q13131); assay: LANCE Eu TR-FRET recombinant kinase assay, AMPK(α1); type: biochemical
AMPKα1, sequence (Q13131 whole entry, looked up): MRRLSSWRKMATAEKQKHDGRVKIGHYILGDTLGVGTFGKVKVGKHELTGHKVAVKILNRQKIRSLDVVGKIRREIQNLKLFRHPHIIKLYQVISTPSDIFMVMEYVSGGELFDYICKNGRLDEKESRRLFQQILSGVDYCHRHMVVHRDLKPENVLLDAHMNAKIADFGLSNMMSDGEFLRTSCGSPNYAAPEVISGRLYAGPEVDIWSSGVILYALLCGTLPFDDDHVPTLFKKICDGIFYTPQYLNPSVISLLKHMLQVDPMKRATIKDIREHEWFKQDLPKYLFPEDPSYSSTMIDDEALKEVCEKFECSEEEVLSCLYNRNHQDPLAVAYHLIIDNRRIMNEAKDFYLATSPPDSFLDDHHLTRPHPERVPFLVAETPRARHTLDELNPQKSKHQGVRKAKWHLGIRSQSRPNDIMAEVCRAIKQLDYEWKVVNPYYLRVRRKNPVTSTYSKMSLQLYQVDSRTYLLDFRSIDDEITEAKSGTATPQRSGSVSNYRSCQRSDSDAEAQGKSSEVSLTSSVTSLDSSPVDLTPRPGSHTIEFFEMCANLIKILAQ
AMPKα1, sequence (Q9Y478 whole entry partner, looked up): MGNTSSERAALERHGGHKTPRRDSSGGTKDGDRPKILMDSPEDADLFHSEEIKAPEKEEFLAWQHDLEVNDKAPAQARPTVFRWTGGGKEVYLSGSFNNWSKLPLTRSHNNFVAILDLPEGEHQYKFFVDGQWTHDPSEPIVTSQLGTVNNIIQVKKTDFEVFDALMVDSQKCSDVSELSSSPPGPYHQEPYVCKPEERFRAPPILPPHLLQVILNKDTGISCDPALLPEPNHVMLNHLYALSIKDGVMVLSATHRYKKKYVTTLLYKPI
AMPKα1, sequence (P54619 whole entry partner, looked up): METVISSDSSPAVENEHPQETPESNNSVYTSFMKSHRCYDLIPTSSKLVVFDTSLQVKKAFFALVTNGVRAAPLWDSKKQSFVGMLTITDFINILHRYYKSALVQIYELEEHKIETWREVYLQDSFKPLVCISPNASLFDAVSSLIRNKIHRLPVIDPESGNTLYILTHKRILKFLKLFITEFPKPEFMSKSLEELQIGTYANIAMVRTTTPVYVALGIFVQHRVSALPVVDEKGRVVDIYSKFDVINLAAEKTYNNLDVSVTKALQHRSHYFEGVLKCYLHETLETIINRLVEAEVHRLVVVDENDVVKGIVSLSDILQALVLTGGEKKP
Description: (§3) Assays were performed at 25° C. in a reaction mixture consisting of 2.5 μL serially diluted inhibitor solution, 2.5 μL kinase, 2.5 μL ATP and 2.5 μL substrate. Reagents were incubated for 1 hr before the reaction was halted through the addition of EDTA (10 mM) after which Eu anti-phospho-CREB (Ser133) antibody (PerkinElmer) was added at a final concentration of 2 nM for 1 hr. […] (n=3)).

K562 cells [3] = assay: CellTox green cellular toxicity assay in K562 cells (glucose-free media); type: cell-based; settings: Homo sapiens
Text: Fluorescence was plotted against inhibitor log-dose and evaluated by a non-linear regression to determine half-maximal effect concentration (EC50) values, where possible.
as §2

AMPK(α2) = AMPK(α2) (Homo sapiens (Human), UniProt P54646); assay: LANCE Eu TR-FRET recombinant kinase assay, AMPK(α2); type: biochemical; settings: mean±S.D. (n=3); ATP 20 μM
AMPK(α2), sequence (P54646 whole entry, looked up): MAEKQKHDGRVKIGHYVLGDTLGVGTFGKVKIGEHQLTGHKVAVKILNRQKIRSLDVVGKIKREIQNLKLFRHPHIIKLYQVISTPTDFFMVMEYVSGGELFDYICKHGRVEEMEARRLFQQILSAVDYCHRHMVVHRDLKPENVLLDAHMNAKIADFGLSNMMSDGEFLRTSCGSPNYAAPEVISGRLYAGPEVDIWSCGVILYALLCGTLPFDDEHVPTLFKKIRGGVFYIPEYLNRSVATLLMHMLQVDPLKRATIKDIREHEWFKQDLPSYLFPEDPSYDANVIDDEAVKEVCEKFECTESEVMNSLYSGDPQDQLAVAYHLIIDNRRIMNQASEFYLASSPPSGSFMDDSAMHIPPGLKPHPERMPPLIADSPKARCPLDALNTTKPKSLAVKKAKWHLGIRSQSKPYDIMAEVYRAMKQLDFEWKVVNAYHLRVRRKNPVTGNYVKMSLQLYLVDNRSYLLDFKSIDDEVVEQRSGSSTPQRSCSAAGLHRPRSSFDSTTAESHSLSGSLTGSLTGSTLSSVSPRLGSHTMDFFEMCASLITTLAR
AMPK(α2), sequence (Q9Y478 whole entry partner, looked up): as the sequence (Q9Y478 whole entry partner, looked up) above
AMPK(α2), sequence (P54619 whole entry partner, looked up): as the sequence (P54619 whole entry partner, looked up) above
Description: as §3

KDR = KDR (Homo sapiens (Human), UniProt P35968); assay: LanthaScreen Eu TR-FRET KDR competitive binding assay
KDR, sequence (P35968 20-1356): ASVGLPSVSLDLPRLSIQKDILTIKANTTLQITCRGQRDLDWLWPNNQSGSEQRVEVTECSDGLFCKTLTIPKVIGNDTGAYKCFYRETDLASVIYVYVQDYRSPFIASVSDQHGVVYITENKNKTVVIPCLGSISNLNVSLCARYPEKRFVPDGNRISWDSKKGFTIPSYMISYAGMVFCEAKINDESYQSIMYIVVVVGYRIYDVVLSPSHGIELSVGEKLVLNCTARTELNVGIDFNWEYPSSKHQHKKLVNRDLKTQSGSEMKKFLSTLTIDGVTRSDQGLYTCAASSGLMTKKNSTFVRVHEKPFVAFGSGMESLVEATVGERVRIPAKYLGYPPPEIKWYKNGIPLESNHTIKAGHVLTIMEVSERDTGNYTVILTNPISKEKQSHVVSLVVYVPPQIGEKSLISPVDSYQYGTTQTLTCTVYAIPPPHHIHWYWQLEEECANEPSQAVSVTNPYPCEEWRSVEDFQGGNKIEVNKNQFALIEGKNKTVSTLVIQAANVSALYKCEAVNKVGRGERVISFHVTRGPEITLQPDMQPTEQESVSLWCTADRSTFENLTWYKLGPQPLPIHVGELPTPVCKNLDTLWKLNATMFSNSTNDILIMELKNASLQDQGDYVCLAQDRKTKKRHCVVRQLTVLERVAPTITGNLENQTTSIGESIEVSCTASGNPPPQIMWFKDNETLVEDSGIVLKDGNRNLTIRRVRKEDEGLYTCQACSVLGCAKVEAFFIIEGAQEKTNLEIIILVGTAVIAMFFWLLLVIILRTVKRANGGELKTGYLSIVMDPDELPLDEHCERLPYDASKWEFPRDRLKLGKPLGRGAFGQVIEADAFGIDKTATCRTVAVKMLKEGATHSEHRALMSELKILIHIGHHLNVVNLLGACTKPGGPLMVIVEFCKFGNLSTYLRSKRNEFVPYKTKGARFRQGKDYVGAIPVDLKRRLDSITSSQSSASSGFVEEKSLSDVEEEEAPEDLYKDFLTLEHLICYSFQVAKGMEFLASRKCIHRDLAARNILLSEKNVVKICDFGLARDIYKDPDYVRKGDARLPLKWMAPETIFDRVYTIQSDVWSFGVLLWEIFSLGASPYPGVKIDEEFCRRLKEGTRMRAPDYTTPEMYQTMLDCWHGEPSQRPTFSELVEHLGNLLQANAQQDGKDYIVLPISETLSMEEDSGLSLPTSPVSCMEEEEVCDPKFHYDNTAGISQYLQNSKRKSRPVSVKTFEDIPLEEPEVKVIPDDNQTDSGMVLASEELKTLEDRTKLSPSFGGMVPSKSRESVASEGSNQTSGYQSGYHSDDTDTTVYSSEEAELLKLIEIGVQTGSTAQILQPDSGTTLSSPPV

cellular AMPK = assay: p-ACC(Ser79) ELISA in K562 cell lysates (glucose-free media, 2-DG); type: cell-based; settings: K562, dose response, FIG. 2B
Description: FIGS. 2A and 2B are a series of graphs showing the effects of compounds of the present disclosure on cellular levels of p-ACC(Ser79) in K562 cells. FIG. 2A Quantitative ELISA determination of p-ACC(Ser79) levels in K562 lysates (1.0 mg mL^−1 total protein) following growth in glucose-free media for 24 h, 2-DG (12 mM) treatment for 1 h followed by treatment with inhibitor compounds at 5.0 μM for 2 h. Relative p-ACC levels are reported as a percentage of levels resultant from DMSO control treatment. […] Cells were collected, washed with PBS and lysed on ice in lysis buffer containing 1% Triton X (Cell Signaling). Lysates were someated (1×5 seconds) and centrifuged for 10 minutes at 10,000 rpm and 4° C., and the protein concentration in supernatants was determined by Lowry assay. Lysates were diluted with ELISA PathScan® sample diluent to a final volume of 100 μL and protein concentration of 1.0 mg/ml prior to use. The concentration of p-ACC (Ser79) was determined using an enzyme-linked immunosorbent assay according to recommended protocol (Cell Signaling, ELISA PathScan® phospho-Acetyl-CoA Carboxylase (Ser79)) and expressed as a relative percentage of the DMSO control.
The AMPK substrate ACC is used as a biomarker for the relative activity of AMPK, and the levels of p-ACC(Ser79) were measured by ELISA in the absence or presence of the compounds to determine the compounds' effects on cellular AMPK activity. The presence of total AMPK, p-AMPK, total ACC, and p-ACC was measured by Western blot in a panel of leukemic cell lines grown in glucoe competent or glucose-free media. […] The cell lysates from K562 cells grown in glucose-free media in the presence 2-DG and treated with compounds of the present disclosure were analyzed by the p-ACC(Ser79) ELISA to determine the effect of the compounds on cellular AMPK activity.

[4] = mean±S.D. (n=3), ATP 8 μM, read-out: IC50 (nM) AMPK(α1)
[5] = read-out: EC50 CellTox Green 48 h, 48 h
[6] = read-out: IC50 (nM) KDR, mean±S.D. (n=3), competitive binding
[7] = read-out: EC50 CellTox Green 24 h, 24 h

SMILES	IC50 (AMPKα1; [4])	EC50 (K562 cells [3]; [5])	IC50 (AMPK(α2))	IC50 (KDR; [6])	further results
CCN(CC)CCCNC(=O)c1c(C)[nH]c(/C=C2\C(=O)Nc3ccc(F)cc32)c1C [Compound No. 8, (Z)—N-(3-(Diethylamino)propyl)-5-((5-fluoro-2-oxoindolin-3-ylidene)methyl)-2,4-dimethyl-1H-pyrrole-3-carboxamide]	152 ± 22 nM	13270 ± 80 nM	38.6 ± 10.6 nM	480 ± 52 nM	EC50 (K562 cells [1]): 13500 ± 590 nM; EC50 (K562 cells [2]): 18000 ± 320 nM
CCN(CC)CCNC(=O)c1c(C)[nH]c(/C=C2\C(=O)Nc3ccc(CCN(C)C)cc32)c1C [Compound No. 12, (Z)—N-(2-(Diethylamino)ethyl)-5-((5-(2-(dimethylamino)ethyl)-2-oxoindolin-3-ylidene)methyl)-2,4-dimethyl-1H-pyrrole-3-carboxamide]			154 ± 53 nM		IC50 (AMPKα1; text value in μM, read-out: AMPKα1 IC50): 2100 ± 440 nM
CCc1ccc2c(c1)NC(=O)/C2=C\c1[nH]c(C)c(C(=O)NCCN(CC)CC)c1C [Compound No. 24, (Z)—N-(2-(Diethylamino)ethyl)-5-((6-ethyl-2-oxoindolin-3-ylidene)methyl)-2,4-dimethyl-1H-pyrrole-3-carboxamide]	348 ± 71 nM				
CCN(CC)CCNC(=O)c1c(C)[nH]c(/C=C2\C(=O)Nc3ccc(CCN=[N+]=[N-])cc32)c1C [Compound No. 13, (Z)-5-((5-(2-Azidoethyl)-2-oxoindolin-3-ylidene)methyl)-N-(2-(diethylamino)ethyl)-2,4-dimethyl-1H-pyrrole-3-carboxamide]	139 ± 13 nM	4810 ± 80 nM	101 ± 20 nM		EC50 (K562 cells [1]): 3830 ± 50 nM; EC50 (K562 cells [2]): 4860 ± 160 nM; IC50 (KDR; read-out: KDR IC50, values in μM): 2260 ± 110 nM
CCN(CC)CCNC(=O)c1c(C)[nH]c(/C=C2\C(=O)Nc3cc(F)ccc32)c1C [Compound No. 20, (Z)—N-(2-(Diethylamino)ethyl)-5-((6-fluoro-2-oxoindolin-3-ylidene)methyl)-2,4-dimethyl-1H-pyrrole-3-carboxamide]	240 ± 37 nM	7150 ± 350 nM	49.4 ± 22.1 nM	189 ± 7 nM	EC50 (K562 cells [1]): 2850 ± 220 nM
Cc1[nH]c(/C=C2\C(=O)Nc3ccc(F)cc32)c(C)c1C(=O)NCCN [Compound No. 4, (Z)—N-(2-Aminoethyl)-5-((5-fluoro-2-oxoindolin-3-ylidene)methyl)-2,4-dimethyl-1H-pyrrole-3-carboxamide]	393 ± 27 nM		141 ± 33 nM		
CCN(CC)CCNC(=O)c1c(C)[nH]c(/C=C2\C(=O)Nc3ccc(CCOC)cc32)c1C [Compound No. 9, (Z)—N-(2-(Diethylamino)ethyl)-5-((5-(2-methoxyethyl)-2-oxoindolin-3-ylidene)methyl)-2,4-dimethyl-1H-pyrrole-3-carboxamide]	296 ± 16 nM		96.6 ± 4.3 nM		
CCN(CC)CCNC(=O)c1c(C)[nH]c(/C=C2\C(=O)Nc3ccc(CCNC(C)=O)cc32)c1C [Compound No. 14, (Z)-5-((5-(2-Acetamidoethyl)-2-oxoindolin-3-ylidene)methyl)-N-(2-(diethylamino)ethyl)-2,4-dimethyl-1H-pyrrole-3-carboxamide]	184 ± 11 nM		108 ± 17 nM	2160 ± 101 nM	
CCN(CC)CCNC(=O)c1c(C)[nH]c(/C=C2\C(=O)Nc3ccccc32)c1C [Compound No. 19, (Z)—N-(2-(Diethylamino)ethyl)-2,4-dimethyl-5-((2-oxoindolin-3-ylidene)methyl)-1H-pyrrole-3-carboxamide]	246 ± 11 nM		88.5 ± 7.1 nM		
CCN(CC)CCNC(=O)c1c(C)[nH]c(/C=C2\C(=O)Nc3ccc(CCOC(C)=O)cc32)c1C [Compound No. 11, (Z)-2-(3-((4-((2-(Diethylamino)ethyl)carbamoyl)-3,5-dimethyl-1H-pyrrol-2-yl)methylene)-2-oxoindolin-5-yl)ethyl acetate]	418 ± 45 nM		111 ± 21 nM		
CCN(CC)CCNC(=O)c1c(C)[nH]c(/C=C2\C(=O)Nc3ccc(CCO)cc32)c1C [Compound 65]					p-ACC level reduction across concentration range compared with sunitinib (cellular AMPK): improvements in cellular AMPK inhibition over sunitinib at all concentrations apart from 50 μM
CCN(CC)CCNC(=O)c1c(C)[nH]c(/C=C2\C(=O)Nc3ccc(CCC(N)=O)cc32)c1C [Compound 67]					p-ACC level reduction across concentration range compared with sunitinib (cellular AMPK): significant improvements in p-ACC level reduction with respect to sunitinib at both 3.125 mM and 12.5 mM
Cc1[nH]c(/C=C2\C(=O)Nc3ccc(F)cc32)c(C)c1C(=O)NCCN(C)C [Compound No. 5, (Z)—N-(2-(Dimethylamino)ethyl)-5-((5-fluoro-2-oxoindolin-3-ylidene)methyl)-2,4-dimethyl-1H-pyrrole-3-carboxamide]	136 ± 16 nM	13030 ± 40 nM	50.4 ± 17.9 nM	493 ± 24 nM	EC50 (K562 cells [1]): 12600 ± 930 nM
Cc1[nH]c(/C=C2\C(=O)Nc3ccc(F)cc32)c(C)c1C(=O)NCCCN(C)C [Compound No. 7, (Z)—N-(3-(Dimethylamino)propyl)-5-((5-fluoro-2-oxoindolin-3-ylidene)methyl)-2,4-dimethyl-1H-pyrrole-3-carboxamide]	221 ± 31 nM		74.8 ± 3.1 nM		
CCN(CC)CCNC(=O)c1c(C)[nH]c(/C=C2\C(=O)Nc3cc(C(C)C)ccc32)c1C [Compound No. 25, N-(2-(Diethylamino)ethyl)-5-((6-isopropyl-2-oxoindolin-3-ylidene)methyl)-2,4-dimethyl-1H-pyrrole-3-carboxamide]					inhibition at 20 µM (AMPKα1; read-out: AMPK(α1) % inhibition at 20 μM): 70%
CCN(CC)CCNC(=O)c1c(C)[nH]c(/C=C2\C(=O)Nc3ccc(C#N)cc32)c1C [Compound No. 17, (Z)-5-((5-Cyano-2-oxoindolin-3-ylidene)methyl)-N-(2-(diethylamino)ethyl)-2,4-dimethyl-1H-pyrrole-3-carboxamide]	93 ± 8 nM	13600 ± 350 nM	16.2 ± 7.4 nM	391 ± 22 nM	EC50 (K562 cells [2]): 19900 ± 1210 nM
CCN(CC)CCNC(=O)c1c(C)[nH]c(/C=C2\C(=O)Nc3ccc(CNC(N)=O)cc32)c1C [Compound No. 18, (Z)—N-(2-(Diethylamino)ethyl)-2,4-dimethyl-5-((2-oxo-5-(ureidomethyl)indolin-3-ylidene)methyl)-1H-pyrrole-3-carboxamide]	205 ± 52 nM		83.6 ± 7 nM		
CCNCCNC(=O)c1c(C)[nH]c(/C=C2\C(=O)Nc3ccc(F)cc32)c1C [Compound No. 6]	180 ± 24 nM	11900 ± 1580 nM	61.4 ± 12.7 nM	505 ± 18 nM	EC50 (K562 cells [1]): 13600 ± 1690 nM; EC50 (K562 cells [2]): 15500 ± 480 nM; EC50 (K562 cells [3]; [7]): 12890 ± 110 nM
CCN(CC)CCNC(=O)c1c(C)[nH]c(/C=C2\C(=O)Nc3cc(Br)ccc32)c1C [Compound No. 22, (Z)-5-((6-Bromo-2-oxoindolin-3-ylidene)methyl)-N-(2-(diethylamino)ethyl)-2,4-dimethyl-1H-pyrrole-3-carboxamide]	208 ± 33 nM		82.5 ± 27.9 nM		
CCN(CC)CCNC(=O)c1c(C)[nH]c(/C=C2\C(=O)Nc3cc(Cl)ccc32)c1C [Compound No. 21, (Z)-5-((6-Chloro-2-oxoindolin-3-ylidene)methyl)-N-(2-(diethylamino)ethyl)-2,4-dimethyl-1H-pyrrole-3-carboxamide]	217 ± 37 nM	4180 ± 410 nM	65.1 ± 12.3 nM	206 ± 7 nM	EC50 (K562 cells [2]): 3830 ± 460 nM; EC50 (K562 cells [3]; [7]): 5240 ± 220 nM
